In paper PMC6934184, “Selective DNA-PKcs inhibition extends the therapeutic index of localized radiotherapy and chemotherapy” (The Journal of Clinical Investigation, 2019):

Tested on: FLT3 ITD
Test: SelectScreen LanthaScreen
Type: binding
Conditions: 1 µM
Method in brief: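 SelectScreen broad panel; activity (Z'LYTE, Adapta) plus binding formats. ATP: Km app for CSF1R Z'LYTE; 10 for CAMK1 Adapta. Readout = % per kinase.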

CN(C(=O)CN1CCOCC1)c1ccc2sc3c(-c4cccc5c(=O)cc(N6CC7CCC(C6)O7)oc45)cccc3c2c1 [NU5455]
% displacement: -11.6%
